The source of these data is US10144737B2 (ETERNITY BIOSCIENCE INC., priority 2014, dated 2018).

One assay concerns the target T1, Btk (Homo sapiens, UniProt Q06187).
T1 construct: purchased Promega (Madison, Wis.)
The assay can be described thus: Btk kinase assay (ADP-Glo). In kind it is biochemical. Particulars: ADP-Glo Btk kinase assay kit; ATP 1.2 μM; 60 minutes at room temperature. Here is the method: Btk kinase assay—The Btk kinase assay was performed using a ADP-Glo Btk kinase assay kit purchased from Promega (Madison, Wis.). The assay was conducted according to the protocols provided in the assay kit. In brief, the enzyme reaction was carried out in the kinase reaction buffer containing Btk (2 ng/μl), ATP (1.2 μM), poly GT peptide (0.3 μM), DTT (40 nM), MnCl2 (1.4 mM), and 1 xkinase buffer (included in the kit) in the presence or absence of the tested articles at various concentrations in 384-well plate at room temperature (22±1° C.) for 60 minutes. The final reaction volume for each reaction was 10 μl. Then, 4 μl of ADP-Glo reagent (included in the kit) was added into the reaction and the plate was further incubated for another 40 minutes to terminate the reaction and deplete the remaining ATP. Finally, 10 μl of the kinase detection reagent was added into each reaction to simultaneously convert ADP to ATP and allow the newly synthesized ATP to be measured by a plate-reading luminometer (Victor X5 2030 multilabel reader, PerkinElmer). IC50 value was calculated using appropriate programs in GraphPad Prism by plotting the logarithm of the concentration versus percent inhibition as compared with a vehicle (DMSO) control.
On the technique in general: ADP-Glo turns the ADP formed in a reaction into a luminescent signal.

For the next assay, the system named is TMD-8 cells. The experiment in a line: Cell proliferation assay (CellTiter-Glo), TMD-8 cells. Conditions: Homo sapiens, TMD8, 120 h, 5-day treatment, read-out: TMD8 cell growth (GI50 μM). In kind it is cell-based. Here is the method: Cell proliferation assay: TMD-8 and SU-DHL-1 cells were maintained at 37° C. in a humidified atmosphere with 5% CO2 in the recommended medium and serum concentrations. For cell proliferation assay, cells were seeded in 96-well pates at a density of 5,000 to 10,000 cells per well and cultured overnight at 37° C. in recommended medium supplemented with 5-10% FBS. On the next day, the test articles at various concentrations or vehicle control (0.5% DMSO) were added into cell culture. After 5-day treatment, the growth of cells was assayed by the CellTiter-Glo® Luminestceaent Cell Viability Assay (Promega). IC50 values were calculated using GraphPad Prism by plotting the logarithm of the concentration versus percent inhibition of cell growth as compared with the vehicle control.
In general terms: Cellular ATP, detected with luciferase, serves as a proxy for viable cell number.

T1 sequence (Q06187 whole entry): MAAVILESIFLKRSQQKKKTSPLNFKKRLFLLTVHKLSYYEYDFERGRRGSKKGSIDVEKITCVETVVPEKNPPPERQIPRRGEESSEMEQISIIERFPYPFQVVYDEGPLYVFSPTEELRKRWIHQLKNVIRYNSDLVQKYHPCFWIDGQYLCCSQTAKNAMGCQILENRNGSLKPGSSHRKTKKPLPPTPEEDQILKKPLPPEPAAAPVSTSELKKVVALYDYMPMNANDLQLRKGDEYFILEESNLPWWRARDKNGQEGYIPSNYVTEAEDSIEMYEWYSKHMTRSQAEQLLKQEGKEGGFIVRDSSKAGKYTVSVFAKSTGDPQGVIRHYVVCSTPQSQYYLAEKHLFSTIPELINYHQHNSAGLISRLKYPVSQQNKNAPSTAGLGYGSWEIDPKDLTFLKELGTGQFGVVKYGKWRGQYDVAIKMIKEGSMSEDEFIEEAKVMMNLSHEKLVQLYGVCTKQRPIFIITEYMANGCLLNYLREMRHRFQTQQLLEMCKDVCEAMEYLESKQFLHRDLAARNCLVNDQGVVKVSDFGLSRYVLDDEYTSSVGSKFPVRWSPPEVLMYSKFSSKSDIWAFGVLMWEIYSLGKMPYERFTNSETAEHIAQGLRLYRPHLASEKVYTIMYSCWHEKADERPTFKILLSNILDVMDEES

A word on the IC50: it is the point on the concentration scale where inhibition reaches its midpoint. A higher IC50 goes with weaker potency. For orientation: GI50 means the concentration at which growth is held to half of that of the control. In turn, `C=CC(=O)N1CC[C@@H](Nc2ncnc3[nH]c(C#Cc4ccc(OC)cc4)cc23)C1` [Example 53, (R)-1-(3-((6-((4-methoxyphenyl)ethynyl)-7H-pyrrolo[2,3-d]pyrimidin-4-yl)amino)pyrrolidin-1-yl)prop-2-en-1-one] showed an IC50 on Btk of 23 nM. The 50% growth inhibitory concentration (GI50) with TMD-8 cells was 0.006 µM.
Compound `CN(C)C/C=C/C(=O)N1CC[C@@H](Nc2ncnc3[nH]c(C#Cc4ccccc4)cc23)C1` [Example 54, (R,E)-4-(dimethylamino)-1-(3-((6-(phenylethynyl)-7H-pyrrolo[2,3-d]pyrimidin-4-yl)amino)pyrrolidin-1-yl)but-2-en-1-one] yielded an IC50 against Btk of 3.5 nM. Further, the GI50 in the assay on TMD-8 cells came out at 0.121 µM.
At Btk, `C=CC(=O)N1CC[C@@H](Nc2ncnc3[nH]c(C#Cc4ccccc4Cl)cc23)C1` [Example 55, (R)-1-(3-((6-((2-chlorophenyl)ethynyl)-7H-pyrrolo[2,3-d]pyrimidin-4-yl)amino)pyrrolidin-1-yl)prop-2-en-1-one] yielded an IC50 of 174 nM. In the assay with TMD-8 cells, the GI50 came to 0.195 µM.
Regarding `CN(C)C/C=C/C(=O)N1CC[C@@H](Nc2ncnc3[nH]c(C#Cc4ccccc4Cl)cc23)C1` [Example 56, (R,E)-1-(3-((6-((2-chlorophenyl)ethynyl)-7H-pyrrolo[2,3-d]pyrimidin-4-yl)amino)pyrrolidin-1-yl)-4-(dimethylamino)but-2-en-1-one], the midpoint of inhibition on Btk, the IC50, lay at 323 nM. Also, in the assay with TMD-8 cells, the GI50 was found to be 1 µM.
In turn, `C=CC(=O)N1CC[C@@H](Nc2ncnc3[nH]c(C#Cc4cccc(Cl)c4)cc23)C1` [Example 57, (R)-1-(3-((6-((3-chlorophenyl)ethynyl)-7H-pyrrolo[2,3-d]pyrimidin-4-yl)amino)pyrrolidin-1-yl)prop-2-en-1-one] displayed an IC50 against Btk of 24 nM. In addition, the GI50 in the assay with TMD-8 cells was found to be 0.01 µM.
`CN(C)C/C=C/C(=O)N1CC[C@@H](Nc2ncnc3[nH]c(C#Cc4cccc(Cl)c4)cc23)C1` [Example 58, (R,E)-1-(3-((6-((3-chlorophenyl)ethynyl)-7H-pyrrolo[2,3-d]pyrimidin-4-yl)amino)pyrrolidin-1-yl)-4-(dimethylamino)but-2-en-1-one] came in with an IC50 against Btk of 0.4 nM. Moreover, in the assay with TMD-8 cells, the GI50 turned out to be 0.171 µM.
As to `C=CC(=O)N1CC[C@@H](Nc2ncnc3[nH]c(C#Cc4ccccc4OC)cc23)C1` [Example 59, (R)-1-(3-((6-((2-methoxyphenyl)ethynyl)-7H-pyrrolo[2,3-d]pyrimidin-4-yl)amino)pyrrolidin-1-yl)prop-2-en-1-one], at Btk, the IC50 is 742 nM. Also, the GI50 in the assay on TMD-8 cells came out at 1.97 µM.
With `C=CC(=O)N1CC[C@@H](Nc2ncnc3[nH]c(C#Cc4cccc(OC)c4)cc23)C1` [Example 60, (R)-1-(3-((6-((3-methoxyphenyl)ethynyl)-7H-pyrrolo[2,3-d]pyrimidin-4-yl)amino)pyrrolidin-1-yl)prop-2-en-1-one], it took 11 nM to reach half-maximal inhibition on Btk (IC50). Also, the GI50 in the assay with TMD-8 cells came to 0.005 µM.
`C=CC(=O)N1CC[C@@H](Nc2ncnc3[nH]c(C#Cc4cccc(F)c4)cc23)C1` [Example 61, (R)-1-(3-((6-((3-fluorophenyl)ethynyl)-7H-pyrrolo[2,3-d]pyrimidin-4-yl)amino)pyrrolidin-1-yl)prop-2-en-1-one] gave an IC50 on Btk of 121 nM. Also, in the assay on TMD-8 cells, the GI50 stood at 0.022 µM.
Compound `C=CC(=O)N1CC[C@@H](Nc2ncnc3[nH]c(C#Cc4ccc(F)cc4)cc23)C1` [Example 62, (R)-1-(3-((6-((4-fluorophenyl)ethynyl)-7H-pyrrolo[2,3-d]pyrimidin-4-yl)amino)pyrrolidin-1-yl)prop-2-en-1-one] registered an IC50 against Btk of 52 nM. For the same compound, in the assay on TMD-8 cells, the GI50 was found to be 0.024 µM.
In turn, `C=CC(=O)N1CC[C@@H](Nc2ncnc3[nH]c(C#Cc4ccc(Cl)cc4)cc23)C1` [Example 63, (R)-1-(3-((6-((4-chlorophenyl)ethynyl)-7H-pyrrolo[2,3-d]pyrimidin-4-yl)amino)pyrrolidin-1-yl)prop-2-en-1-one] returned an IC50 on Btk of 4.8 nM. Further, the GI50 with TMD-8 cells stood at 0.0027 µM.
Compound `C=CC(=O)N1CC[C@@H](Nc2ncnc3[nH]c(C#Cc4ccc(Cl)c(Cl)c4)cc23)C1` [Example 64, (R)-1-(3-((6-((3,4-dichlorophenyl)ethynyl)-7H-pyrrolo[2,3-d]pyrimidin-4-yl)amino)pyrrolidin-1-yl)prop-2-en-1-one] returned an IC50 on Btk of 0.2 nM. In addition, the GI50 in the assay with TMD-8 cells stood at 0.005 µM.
Take `C=CC(=O)N1CC[C@@H](Nc2ncnc3[nH]c(C#Cc4cccc(OC(F)(F)F)c4)cc23)C1` [Example 65, (R)-1-(3-((6-((3-trifluoromethoxyphenyl)ethynyl)-7H-pyrrolo[2,3-d]pyrimidin-4-yl)amino)pyrrolidin-1-yl)prop-2-en-1-one]: the IC50 on Btk stood at 173 nM. Besides, the GI50 with TMD-8 cells was 0.0027 µM.
The compound `C=CC(=O)N1CC[C@@H](Nc2ncnc3[nH]c(C#Cc4ccc(OC(F)(F)F)cc4)cc23)C1` [Example 66, (R)-1-(3-((6-((4-trifluoromethoxyphenyl)ethynyl)-7H-pyrrolo[2,3-d]pyrimidin-4-yl)amino)pyrrolidin-1-yl)prop-2-en-1-one] came in with an IC50 at Btk of 215 nM. For the same compound, in the assay on TMD-8 cells, the GI50 was 0.0012 µM.
At Btk, `C=CC(=O)N1CC[C@@H](Nc2ncnc3[nH]c(C#Cc4ccc(C(F)(F)F)cc4)cc23)C1` [Example 67, (R)-1-(3-((6-((4-trifluoromethylphenyl)ethynyl)-7H-pyrrolo[2,3-d]pyrimidin-4-yl)amino)pyrrolidin-1-yl)prop-2-en-1-one] came in with an IC50 of 272 nM. Besides, in the assay on TMD-8 cells, the GI50 was determined as 0.004 µM.
In the case of `C=CC(=O)N1CC[C@@H](Nc2ncnc3[nH]c(C#Cc4cccc(C(F)(F)F)c4)cc23)C1` [Example 68, (R)-1-(3-((6-((3-trifluoromethylphenyl)ethynyl)-7H-pyrrolo[2,3-d]pyrimidin-4-yl)amino)pyrrolidin-1-yl)prop-2-en-1-one], the IC50 on Btk was found to be 187 nM. In addition, the GI50 in the assay on TMD-8 cells came to 0.003 µM.
`C=CC(=O)N1CC[C@@H](Nc2ncnc3[nH]c(C#Cc4cccc(C)c4)cc23)C1` [Example 69, (R)-1-(3-((6-((3-methylphenyl)ethynyl)-7H-pyrrolo[2,3-d]pyrimidin-4-yl)amino)pyrrolidin-1-yl)prop-2-en-1-one] came in with an IC50 at Btk of 182 nM. The GI50 in the assay on TMD-8 cells was determined as 0.007 µM.
Regarding `C=CC(=O)N1CC[C@@H](Nc2ncnc3[nH]c(C#Cc4ccc(Cl)c(F)c4)cc23)C1` [Example 70, (R)-1-(3-((6-((3-fluoro-4-chlorophenyl)ethynyl)-7H-pyrrolo[2,3-d]pyrimidin-4-yl)amino)pyrrolidin-1-yl)prop-2-en-1-one], the IC50 against Btk was 7.2 nM. Also, the GI50 in the assay on TMD-8 cells amounted to 0.0013 µM.
On the same counts, the results for `C=CC(=O)N1CC[C@@H](Nc2ncnc3[nH]c(C#Cc4ccc5ccccc5c4)cc23)C1` [Example 71, (R)-1-(3-((6-(naphthalen-2-ylethynyl)-7H-pyrrolo[2,3-d]pyrimidin-4-yl)amino)pyrrolidin-1-yl)prop-2-en-1-one] are 10 nM and 0.001 µM.
On to `C=CC(=O)N1CC[C@@H](Nc2ncnc3[nH]c(C#Cc4ccc5c(c4)OCO5)cc23)C1` [Example 72, (R)-1-(3-((6-(benzo[d][1,3]dioxol-5-ylethynyl)-7H-pyrrolo[2,3-d]pyrimidin-4-yl)amino)pyrrolidin-1-yl)prop-2-en-1-one], for which half-maximal inhibition against Btk (IC50) was put at 3.5 nM. Moreover, in the assay with TMD-8 cells, the GI50 was found to be 0.0007 µM.
Consider `C=CC(=O)N1CC[C@@H](Nc2ncnc3[nH]c(C#Cc4ccc5sccc5c4)cc23)C1` [Example 73, (R)-1-(3-((6-(benzo[b]thiophen-5-ylethynyl)-7H-pyrrolo[2,3-d]pyrimidin-4-yl)amino)pyrrolidin-1-yl)prop-2-en-1-one], for which half-maximal inhibition at Btk (IC50) required 0.1 nM. Also, the GI50 in the assay on TMD-8 cells was 0.001 µM.
At Btk, `C=CC(=O)N1CC[C@@H](Nc2ncnc3[nH]c(C#Cc4ccc5occc5c4)cc23)C1` [Example 74, (R)-1-(3-((6-(benzofuran-5-ylethynyl)-7H-pyrrolo[2,3-d]pyrimidin-4-yl)amino)pyrrolidin-1-yl)prop-2-en-1-one] displayed an IC50 of 0.03 nM. Also, the GI50 with TMD-8 cells was 0.0012 µM.
In the case of `C=CC(=O)N1CC[C@@H](Nc2ncnc3[nH]c(C#Cc4cccs4)cc23)C1` [Example 75, (R)-1-(3-((6-(thiophen-2-ylethynyl)-7H-pyrrolo[2,3-d]pyrimidin-4-yl)amino)pyrrolidin-1-yl)prop-2-en-1-one], half-maximal inhibition at Btk (IC50) was put at 30 nM. Besides, the GI50 with TMD-8 cells was found to be 0.0049 µM.
`C=CC(=O)N1CC[C@@H](Nc2ncnc3[nH]c(C#Cc4ccsc4)cc23)C1` [Example 76, (R)-1-(3-((6-(thiophen-3-ylethynyl)-7H-pyrrolo[2,3-d]pyrimidin-4-yl)amino)pyrrolidin-1-yl)prop-2-en-1-one] returned an IC50 on Btk of 1 nM. The GI50 with TMD-8 cells amounted to 0.0032 µM.
